According to PubChem BioAssay (NCI):
Values joined by “and” are separate entries in the source; they are usually repeats but may differ in a detail not shown here. Identical values can stand only once.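 Five concentrations, 48 hours, 96-well plates. Abbreviation: GI50, concentration required for 50% inhibition of growth. TGI: total growth inhibition.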 Where a SMILES comes first, the peptide text is derived from it. [ ]: non-standard residue; d: D form. Ac5c = NC1(C(=O)O)CCCC1

Legend:
Assay in all cases: NCI tumour cell line growth inhibition, 48 h
XF 498 CNS = tested on: XF 498 CNS
OVCAR-8 ovarian = tested on: OVCAR-8 ovarian
SK-OV-3 ovarian = tested on: SK-OV-3 ovarian
ACHN renal = tested on: ACHN renal
TK-10 renal = tested on: TK-10 renal
U251 CNS = tested on: U251 CNS
HOP-92 NSCLC = tested on: HOP-92 NSCLC
SF-539 CNS = tested on: SF-539 CNS
MALME-3M melanoma = tested on: MALME-3M melanoma

SMILES	TGI (XF 498 CNS) [µM]	TGI (OVCAR-8 ovarian)	TGI (SK-OV-3 ovarian)	TGI (ACHN renal)	TGI (TK-10 renal)	TGI (U251 CNS)	TGI (HOP-92 NSCLC)	TGI (SF-539 CNS)	TGI (MALME-3M melanoma)	GI50 (OVCAR-8 ovarian) [µM]	GI50 (SK-OV-3 ovarian)	GI50 (ACHN renal)	GI50 (TK-10 renal) [µM]	GI50 (U251 CNS)	GI50 (MALME-3M melanoma) [µM]	GI50 (HOP-92 NSCLC)	GI50 (SF-539 CNS)
O=C(/C=C/c1ccc([N+](=O)[O-])o1)N1CCN(Cc2ccccc2)CC1	30.4	28.4 µM	> 100 µM	28.3 µM	37.9 µM	28.1 µM	27.8 µM	19.4 µM	–	–	–	–	–	–	–	–	–
COc1ccc(-c2onc(-c3ccc([N+](=O)[O-])cc3)c2C2=NCCN2)cc1	> 100	> 100 µM	–	> 100 µM	–	> 100 µM	–	> 100 µM	> 100 µM	–	–	–	–	–	–	–	–
COc1cc(/C=C(\C#N)C(=O)c2ccccc2)ccc1OCc1ccccc1	> 100	> 100 µM	> 100 µM	> 100 µM	> 100 µM	–	–	> 100 µM	–	–	–	–	–	–	–	–	–
NNC(=O)/C(=C/c1ccc(Cl)c(Cl)c1)NC(=O)c1ccccc1	> 100	> 100 µM	–	> 100 µM	> 100 µM	> 100 µM	> 100 µM	–	> 100 µM	–	–	–	–	–	–	–	–
COc1ccc([N+]2=NC(c3ccc([N+](=O)[O-])cc3)=NN(c3ccccc3)C2)cc1	> 100	> 100 µM	–	> 100 µM	> 100 µM	> 100 µM	–	–	> 100 µM	–	–	–	–	–	–	–	–
O=C1OC(CC(=O)c2ccc(Cl)c(Cl)c2)C(Cl)=C1Cl (configuration not stated)	> 100	> 100 µM	> 100 µM	> 100 µM	> 100 µM	> 100 µM	–	> 100 µM	> 100 µM	–	–	–	–	–	–	–	–
NC1(C(=O)NC2(C(=O)O)CCCC2)CCCC1 (H-[Ac5c]-[Ac5c]-OH)	–	> 100 µM	> 100 µM	> 100 µM	> 100 µM	> 100 µM	> 100 µM	> 100 µM	> 100 µM	–	–	–	–	–	–	–	–
CC(=O)[O-].CC(=O)[O-].[Pt+2].c1cscn1.c1cscn1	–	71.7 µM	> 100 µM	42.2 µM	> 100 µM	> 100 µM	> 100 µM	> 100 µM	> 100 µM	31.3	> 100 µM	19.7 µM	> 100	54.5 µM	> 100	> 100 µM	48.3 µM
CCN(CC)c1cc2c3c(c1)CCCN3CCC2	–	> 10 µM	> 10 µM	> 10 µM	> 10 µM	> 10 µM	> 10 µM	> 10 µM	> 10 µM	–	–	–	–	–	–	–	–
Cc1cc(I)cc(CN(C)CCCN2CCSCC2)c1O	–	> 100 µM	> 100 µM	> 100 µM	89.3 µM	95.6 µM	47.4 µM	62.7 µM	44.6 µM	34.8	35.4 µM	41 µM	33.3	33.9 µM	23.2	14.6 µM	23.4 µM
CC(=O)N[C@H]1C=C[C@@H]2/C=C(C)/C=C/[C@@H](C)[C@H]([C@H](C)[C@H](O)[C@@H](C)NC(C)=O)OC(=O)/C=C/C=C(C)\C=C\[C@]2(C)C1	–	4.65 µM and > 45 µM	4.65 µM and > 45 µM	4.65 µM and > 45 µM	44.6 µM	4.65 µM and > 45 µM	–	4.65 µM and 24.6 µM	4.65 µM and 24.7 µM	–	0.0117 µM and 0.0045 µM	0.0186 µM and 0.0045 µM	0.00805	0.00747 µM and 0.0045 µM	–	0.00954 µM and 0.0045 µM	0.0107 µM and 0.0045 µM
CC(=O)Nc1ccc(C(=O)NN2C(=O)C(Cl)C2c2ccc(Cl)cc2)cc1 (configuration not stated)	–	> 100 µM	71.9 µM	> 100 µM	> 100 µM	> 56.7 µM	82.1 µM	> 54.2 µM	> 65.8 µM	–	–	–	–	–	–	–	–
COC(=O)C1C(C(=O)OC)C2(OC)c3ccccc3-c3ccccc3C12 (configuration not stated)	–	> 100 µM	> 100 µM	> 100 µM	> 100 µM	> 100 µM	> 100 µM	> 100 µM	> 100 µM	–	–	–	–	–	–	–	–
CCN(CC)CC(O)CNc1ccc(NCC2CO2)c2c1C(=O)c1ccccc1C2=O (configuration not stated)	–	1.32 µM	9.64 µM	0.448 µM and 0.751 µM	7.15 µM	19.6 µM	6.39 µM	3.08 µM	5.44 µM	–	–	0.0514 µM	–	0.373 µM	–	–	–
C[C@]12C[C@H](c3ccccc3)Nc3ccccc3N1C(c1ccccc1)=NO2	–	> 100 µM	> 100 µM	> 100 µM	> 100 µM	> 100 µM	> 100 µM	> 100 µM	> 100 µM	–	–	–	–	–	–	–	–
COc1cc(OC)cc(C2CC(=O)Nc3c2c(C)nn3-c2nc3ccccc3[nH]2)c1 (configuration not stated)	–	> 100 µM	5.49 µM	42.4 µM	45.5 µM	9.57 µM	6.63 µM	9.43 µM	> 100 µM	3.97	2.41 µM	3.94 µM	3.04	2.99 µM	3.66	2.59 µM	2.96 µM
Cc1c(NC(=O)C(C)(C)Br)c(=O)oc2c(C)c3occc(=O)c3cc12	98.6	> 100 µM	–	> 100 µM	> 100 µM	> 100 µM	–	> 100 µM	> 100 µM	–	–	–	–	–	–	–	–
CC(=O)c1c(C)[nH]c(-c2nc3ccc(N4CCN(C)CC4)cc3[nH]2)c1-c1ccc(OCC2CCOCC2)cc1	–	27.9 µM	11.1 µM	12.4 µM	16.8 µM	17.5 µM	2.79 µM	12.3 µM	2.57 µM	1.5	0.377 µM	0.777 µM	0.306	2.1 µM	0.72	0.11 µM	1.24 µM
O=C(/C=C/c1ccc(F)cc1)c1ccc(Cl)cc1Cl	–	> 100 µM	> 100 µM	> 100 µM	> 100 µM	> 100 µM	80.8 µM	> 100 µM	> 100 µM	33.7	> 100 µM	> 100 µM	86.8	44.6 µM	> 100	30 µM	> 100 µM
Cc1cc(Cl)ccc1NC(=O)CCCC(=O)C1CCCC1=O (configuration not stated)	> 100	> 100 µM	> 100 µM	> 100 µM	> 100 µM	> 100 µM	–	> 100 µM	> 100 µM	–	–	–	–	–	–	–	–
CO[C@@H]1/C=C\C=C(/C)C(=O)NC2=CC(=O)C(NCCN(C)C)=C(C[C@@H](C)C[C@@H](OC)[C@@H](O)[C@H](C)/C=C(\C)[C@H]1OC(N)=O)C2=O	–	2.95 µM and 6.36 µM	> 37.4 µM and 6.86 µM	–	24 µM and 34.7 µM	8.18 µM	11.7 µM and 2.1 µM	11.6 µM and 3.38 µM	3.73 µM and 0.562 µM	0.0216	–	< 0.0167 µM and 0.0737 µM	–	0.0144 µM	–	0.966 µM and 0.175 µM	< 0.01 µM and 0.0319 µM
ClCc1cccc(Cn2cnc3c(NC45CC6CC(CC(C6)C4)C5)ncnc32)c1	–	50.8 µM	42.3 µM	30.5 µM	44.7 µM	30.8 µM	34.5 µM	32.4 µM	32.4 µM	17.8	21.1 µM	15.4 µM	20.5	14.8 µM	14.6	17.3 µM	16.9 µM
O=C1Nc2ccc(C(=O)c3ccco3)cc2/C1=C/c1cc(Cl)c(O)c(Cl)c1	–	> 25 µM	16.1 µM	11.1 µM	> 23.9 µM	> 25 µM	14.4 µM	9.49 µM	11.1 µM	6.27	4.51 µM	2.14 µM	6.53	3.95 µM	1.66	3.2 µM	3.93 µM
Cc1nc2sc(C(=O)Nc3cccc(Cl)c3C)c(N)c2cc1C(=O)/C=C/c1ccccc1	–	> 14.3 µM	13 µM	1.09 µM	4.54 µM	0.981 µM	2.11 µM	1.43 µM	4.47 µM	0.543	1.44 µM	0.327 µM	1.06	0.252 µM	0.315	0.371 µM	0.595 µM
CSc1ccc(C2=NN(C(=O)c3ccc(F)cc3)C(c3ccc(F)cc3)C2)cc1 (configuration not stated)	–	28.9 µM	31.1 µM	25.4 µM	22.8 µM	15.5 µM	24.6 µM	38.1 µM	26 µM	13.5	16.9 µM	12.7 µM	10.4	4.54 µM	12.1	9.72 µM	19.4 µM
CC(=O)OCC1OC(N2C(=O)C(=O)c3cc(C)ccc32)C(OC(C)=O)C(OC(C)=O)C1OC(C)=O (configuration not stated)	–	> 100 µM	> 100 µM	> 100 µM	> 100 µM	> 100 µM	> 100 µM	> 100 µM	> 100 µM	–	–	–	–	–	–	–	–
O=[N+]([O-])c1cc(Cl)c(Cl)c([N+](=O)[O-])c1Cl	–	2.97 µM	13.4 µM	3.6 µM	2.99 µM	2.61 µM	3.76 µM	6.94 µM	2.18 µM	1.34	3.88 µM	1.76 µM	1.53	1.03 µM	0.473	1.92 µM	2.53 µM
O=[N+]([O-])c1cccc(/C=N\NS(=O)(=O)c2ccc(Cl)cc2)c1O	–	> 100 µM	> 100 µM	> 100 µM	> 100 µM	> 100 µM	> 100 µM	> 100 µM	> 100 µM	–	–	–	–	–	–	–	–
